Measured values as given in ChEMBL document CHEMBL3885881, “DrugMatrix”.

Organism: Rattus norvegicus
Experiment: DrugMatrix - Regimen: Daily Repeat
Assay type: toxicity, organism-based, Sprague-Dawley
Set-up: regimen Daily Repeat, gender Male, age 6-8 weeks
Conditions: in vivo, po, route oral GAVAGE, […]; for ABSOLUTE BASOPHIL / ABSOLUTE EOSINOPHIL / ABSOLUTE LYMPHOCYTE / ABSOLUTE MONOCYTE / ABSOLUTE SEGMENTED NEUTROPHIL / BASOPHIL / EOSINOPHIL / ERYTHROCYTE COUNT / HEMATOCRIT / HEMOGLOBIN / LEUKOCYTE COUNT / LYMPHOCYTE / MEAN CORPUSCULAR HEMOGLOBIN / MEAN CORPUSCULAR HEMOGLOBIN CONCENTRATION / MEAN CORPUSCULAR VOLUME / MONOCYTE / NEUTROPHIL / NUCLEATED RED BLOOD CELLS / PLATELET COUNT: tissue Blood; for ALANINE AMINOTRANSFERASE / ALBUMIN / ALKALINE PHOSPHATASE / ASPARTATE AMINOTRANSFERASE / BLOOD UREA NITROGEN / CARBON DIOXIDE / CHLORIDE / CHOLESTEROL / CREATINE PHOSPHOKINASE / CREATININE / GLUCOSE / LACTATE DEHYDROGENASE / LIPASE / PHOSPHORUS / POTASSIUM / SODIUM / TOTAL BILIRUBIN / TOTAL PROTEIN / URIC ACID: tissue Plasma
[1] = 0 mg/kg, 72 h, dose level Control, time 3 day
[2] = 0 mg/kg, 120 h, dose level Control, time 5 day
[3] = 13 mg/kg, 72 h, dose level Low, time 3 day

CN(C)c1nc(N(C)C)nc(N(C)C)n1 [ALTRETAMINE]
ABSOLUTE BASOPHIL [1]: 0 CELLS/uL
ABSOLUTE EOSINOPHIL [1]: 70.67 CELLS/uL
ABSOLUTE LYMPHOCYTE [1]: 12761.5 CELLS/uL
ABSOLUTE MONOCYTE [1]: 214.17 CELLS/uL
ABSOLUTE SEGMENTED NEUTROPHIL [1]: 987 CELLS/uL
BASOPHIL [1]: 0%
EOSINOPHIL [1]: 0.5%
ERYTHROCYTE COUNT [1]: 5.61 x10E6/uL
HEMATOCRIT [1]: 35.22%
HEMOGLOBIN [1]: 13.57 G/DL
LEUKOCYTE COUNT [1]: 14.03 x10E3/uL
LYMPHOCYTE [1]: 91%
MEAN CORPUSCULAR HEMOGLOBIN [1]: 24.25 pg
MEAN CORPUSCULAR HEMOGLOBIN CONCENTRATION [1]: 38.52 G/DL
MEAN CORPUSCULAR VOLUME [1]: 62.9 fL
MONOCYTE [1]: 1.5%
NEUTROPHIL [1]: 7%
NUCLEATED RED BLOOD CELLS [1]: 0 /100WBC
PLATELET COUNT [1]: 997.5 x10E3/uL
ALANINE AMINOTRANSFERASE [1]: 66.5 u/L
ALBUMIN [1]: 3.98 G/DL
ALKALINE PHOSPHATASE [1]: 350 u/L
ASPARTATE AMINOTRANSFERASE [1]: 83.83 u/L
BLOOD UREA NITROGEN [1]: 12.33 mg/dL
CARBON DIOXIDE [1]: 30.33 mmol/L
CHLORIDE [1]: 100 MEQ/L
CHOLESTEROL [1]: 75 mg/dL
CREATINE PHOSPHOKINASE [1]: 200 u/L
CREATININE [1]: 0.17 mg/dL
GLUCOSE [1]: 170 mg/dL
LACTATE DEHYDROGENASE [1]: 89.33 u/L
LIPASE [1]: 10.33 u/L
PHOSPHORUS [1]: 10.88 mg/dL
POTASSIUM [1]: 6.13 MEQ/L
SODIUM [1]: 140.53 MEQ/L
TOTAL BILIRUBIN [1]: 0.2 mg/dL
TOTAL PROTEIN [1]: 5.67 G/DL
URIC ACID [1]: 1.6 mg/dL
ABSOLUTE BASOPHIL [2]: 0 CELLS/uL
ABSOLUTE EOSINOPHIL [2]: 0 CELLS/uL
ABSOLUTE LYMPHOCYTE [2]: 9526.67 CELLS/uL
ABSOLUTE MONOCYTE [2]: 134.17 CELLS/uL
ABSOLUTE SEGMENTED NEUTROPHIL [2]: 922.5 CELLS/uL
BASOPHIL [2]: 0%
EOSINOPHIL [2]: 0%
ERYTHROCYTE COUNT [2]: 5.58 x10E6/uL
HEMATOCRIT [2]: 34.78%
HEMOGLOBIN [2]: 13.5 G/DL
LEUKOCYTE COUNT [2]: 10.58 x10E3/uL
LYMPHOCYTE [2]: 90.17%
MEAN CORPUSCULAR HEMOGLOBIN [2]: 24.27 pg
MEAN CORPUSCULAR HEMOGLOBIN CONCENTRATION [2]: 38.82 G/DL
MEAN CORPUSCULAR VOLUME [2]: 62.48 fL
MONOCYTE [2]: 1.17%
NEUTROPHIL [2]: 8.67%
NUCLEATED RED BLOOD CELLS [2]: 0.17 /100WBC
PLATELET COUNT [2]: 807.17 x10E3/uL
ALANINE AMINOTRANSFERASE [2]: 66.83 u/L
ALBUMIN [2]: 3.73 G/DL
ALKALINE PHOSPHATASE [2]: 286.17 u/L
ASPARTATE AMINOTRANSFERASE [2]: 142.33 u/L
BLOOD UREA NITROGEN [2]: 14.67 mg/dL
CARBON DIOXIDE [2]: 25.5 mmol/L
CHLORIDE [2]: 89.17 MEQ/L
CHOLESTEROL [2]: 75.17 mg/dL
CREATINE PHOSPHOKINASE [2]: 310.67 u/L
CREATININE [2]: 0.2 mg/dL
GLUCOSE [2]: 153 mg/dL
LACTATE DEHYDROGENASE [2]: 1594 u/L
LIPASE [2]: 14.83 u/L
PHOSPHORUS [2]: 11.28 mg/dL
POTASSIUM [2]: 8.46 MEQ/L
SODIUM [2]: 126.88 MEQ/L
TOTAL BILIRUBIN [2]: 0.37 mg/dL
TOTAL PROTEIN [2]: 5.53 G/DL
URIC ACID [2]: 1.52 mg/dL
ABSOLUTE BASOPHIL [3]: 0 CELLS/uL
ABSOLUTE EOSINOPHIL [3]: 45.67 CELLS/uL
ABSOLUTE LYMPHOCYTE [3]: 11954 CELLS/uL
ABSOLUTE MONOCYTE [3]: 232.67 CELLS/uL
ABSOLUTE SEGMENTED NEUTROPHIL [3]: 1567.67 CELLS/uL
BASOPHIL [3]: 0%
EOSINOPHIL [3]: 0.33%
ERYTHROCYTE COUNT [3]: 5.86 x10E6/uL
HEMATOCRIT [3]: 37.47%
HEMOGLOBIN [3]: 14.6 G/DL
LEUKOCYTE COUNT [3]: 13.8 x10E3/uL
LYMPHOCYTE [3]: 86.67%
MEAN CORPUSCULAR HEMOGLOBIN [3]: 24.97 pg
MEAN CORPUSCULAR HEMOGLOBIN CONCENTRATION [3]: 38.97 G/DL
MEAN CORPUSCULAR VOLUME [3]: 64 fL
MONOCYTE [3]: 1.67%
NEUTROPHIL [3]: 11.33%
NUCLEATED RED BLOOD CELLS [3]: 0 /100WBC
PLATELET COUNT [3]: 1022.33 x10E3/uL
ALANINE AMINOTRANSFERASE [3]: 99.33 u/L
ALBUMIN [3]: 4.03 G/DL
ALKALINE PHOSPHATASE [3]: 392.33 u/L
ASPARTATE AMINOTRANSFERASE [3]: 89.67 u/L
BLOOD UREA NITROGEN [3]: 12.33 mg/dL
CARBON DIOXIDE [3]: 29 mmol/L
CHLORIDE [3]: 99 MEQ/L
CHOLESTEROL [3]: 87.33 mg/dL
CREATINE PHOSPHOKINASE [3]: 288 u/L
CREATININE [3]: 0.18 mg/dL
GLUCOSE [3]: 161 mg/dL
LACTATE DEHYDROGENASE [3]: 193 u/L
LIPASE [3]: 10.67 u/L
PHOSPHORUS [3]: 11.53 mg/dL
POTASSIUM [3]: 6.64 MEQ/L
SODIUM [3]: 140.43 MEQ/L
TOTAL BILIRUBIN [3]: 0.23 mg/dL
TOTAL PROTEIN [3]: 5.83 G/DL
URIC ACID [3]: 1.97 mg/dL
